ChEMBL document CHEMBL1145592, “Pleuromutilin derivatives having a purine ring. Part 1: new compounds with promising antibacterial activity against resistant Gram-positive pathogens” (2008)
Converted amounts (≈) assume the structure as drawn.

Assays:
Type in all cases: functional
Staphylococcus aureus [1] = test: Antibacterial activity against methicillin-susceptible Staphylococcus aureus Smith
Staphylococcus aureus [2] = test: Antibacterial activity against methicillin-resistant Staphylococcus aureus KMP9
Enterococcus faecium = test: Antibacterial activity against vancomycin-resistant Enterococcus faecium KU1778
Staphylococcus aureus [3] = test: Antibacterial activity against methicillin-susceptible Staphylococcus aureus Smith infected iv dosed mouse 1 hr after inoculation
Streptococcus pneumoniae [4] = test: Antibacterial activity against penicillin-susceptible Streptococcus pneumoniae ATCC 49619
Streptococcus pneumoniae [5] = test: Antibacterial activity against penicillin-resistant Streptococcus pneumoniae KT2524
Streptococcus pyogenes = test: Antibacterial activity against Streptococcus pyogenes ATCC 12344
Moraxella catarrhalis = test: Antibacterial activity against Moraxella catarrhalis K1209
Haemophilus influenzae = test: Antibacterial activity against Haemophilus influenzae TH13

| Compound | MIC (Staphylococcus aureus [1]) [µg/mL] | MIC (Staphylococcus aureus [2]) [µg/mL] | MIC (Enterococcus faecium) [µg/mL] | ED50 (Staphylococcus aureus [3]) [mg/kg] | MIC (Streptococcus pneumoniae [4]) [µg/mL] | MIC (Streptococcus pneumoniae [5]) [µg/mL] | MIC (Streptococcus pyogenes) [µg/mL] | MIC (Moraxella catarrhalis) [µg/mL] | MIC (Haemophilus influenzae) [µg/mL] |
| --- | --- | --- | --- | --- | --- | --- | --- | --- | --- |
| C=C[C@]1(C)C[C@@H](OC(=O)CSC2CCN(C(=O)CCn3cnc4c(N5CC(NC)C5)nc(N)nc43)CC2)[C@]2(C)[C@H](C)CC[C@]3(CCC(=O)[C@@H]32)[C@@H](C)[C@@H]1O | 0.5 (≈ 0.666 µM) | 1 (≈ 1.33 µM) | 0.5 (≈ 0.666 µM) | 3.97 | 0.063 (≈ 0.0839 µM) | 0.125 (≈ 0.166 µM) | 0.125 (≈ 0.166 µM) | 0.25 (≈ 0.333 µM) | 2 (≈ 2.66 µM) |
| C=C[C@]1(C)C[C@@H](OC(=O)CSC2CCN(C(=O)CCn3cnc4c(N5CCC(N)C5)nc(N)nc43)CC2)[C@]2(C)[C@H](C)CC[C@]3(CCC(=O)[C@@H]32)[C@@H](C)[C@@H]1O (stereo partly specified) | 0.5 (≈ 0.666 µM) | 1 (≈ 1.33 µM) | 0.125 (≈ 0.166 µM) | 3.05 | 0.125 (≈ 0.166 µM) | 0.125 (≈ 0.166 µM) | 0.063 (≈ 0.0839 µM) | 0.25 (≈ 0.333 µM) | 1 (≈ 1.33 µM) |
| CN[C@H](CC(C)C)C(=O)N[C@H]1C(=O)N[C@@H](CC(N)=O)C(=O)N[C@H]2C(=O)N[C@H]3C(=O)N[C@H](C(=O)N[C@H](C(=O)O)c4cc(O)cc(O)c4-c4cc3ccc4O)[C@H](O)c3ccc(c(Cl)c3)Oc3cc2cc(c3O[C@@H]2O[C@H](CO)[C@@H](O)[C@H](O)[C@H]2O[C@H]2C[C@](C)(N)[C@H](O)[C@H](C)O2)Oc2ccc(cc2Cl)[C@H]1O [VANCOMYCIN] |  |  | > 128 | 0.88 | 0.25 (≈ 0.173 µM) | 0.5 (≈ 0.345 µM) |  | 64 (≈ 44.2 µM) | > 128 |
| C=C[C@]1(C)C[C@@H](OC(=O)CSC2CCN(C(=O)CCn3cnc4c(N5CCNCC5)ncnc43)CC2)[C@]2(C)[C@H](C)CC[C@]3(CCC(=O)[C@@H]32)[C@@H](C)[C@@H]1O | 0.063 (≈ 0.0856 µM) | 0.063 (≈ 0.0856 µM) | 0.032 (≈ 0.0435 µM) | 2.94 | 0.032 (≈ 0.0435 µM) | 0.032 (≈ 0.0435 µM) | 0.016 (≈ 0.0217 µM) | 0.032 (≈ 0.0435 µM) | 1 (≈ 1.36 µM) |
| C=C[C@]1(C)C[C@@H](OC(=O)CSC2CCN(C(=O)CCn3cnc4c(N5CC[C@@H](N)C5)ncnc43)CC2)[C@]2(C)[C@H](C)CC[C@]3(CCC(=O)[C@@H]32)[C@@H](C)[C@@H]1O | 0.063 (≈ 0.0856 µM) | 0.25 (≈ 0.34 µM) | 0.063 (≈ 0.0856 µM) | 1.01 | 0.016 (≈ 0.0217 µM) | 0.016 (≈ 0.0217 µM) | 0.008 (≈ 0.0109 µM) | 0.063 (≈ 0.0856 µM) | 1 (≈ 1.36 µM) |
| C=C[C@]1(C)C[C@@H](OC(=O)CSC2CCN(C(=O)CCn3cnc4c(N5CCC(CNC)C5)nc(N)nc43)CC2)[C@]2(C)[C@H](C)CC[C@]3(CCC(=O)[C@@H]32)[C@@H](C)[C@@H]1O (stereo partly specified) | 0.5 (≈ 0.642 µM) | 4 (≈ 5.13 µM) | 0.5 (≈ 0.642 µM) | 1.01 | 0.125 (≈ 0.16 µM) | 0.25 (≈ 0.321 µM) | 0.032 (≈ 0.0411 µM) | 0.25 (≈ 0.321 µM) | 4 (≈ 5.13 µM) |
| C=C[C@]1(C)C[C@@H](OC(=O)CSC2CCN(C(=O)CCn3cnc4c(N5CCN(C)CC5)nc(N)nc43)CC2)[C@]2(C)[C@H](C)CC[C@]3(CCC(=O)[C@@H]32)[C@@H](C)[C@@H]1O | 0.125 (≈ 0.163 µM) | 0.125 (≈ 0.163 µM) | 0.125 (≈ 0.163 µM) | 8.83 | 0.125 (≈ 0.163 µM) | 0.063 (≈ 0.0823 µM) | 0.063 (≈ 0.0823 µM) | 0.063 (≈ 0.0823 µM) | 2 (≈ 2.61 µM) |
| C=C[C@]1(C)C[C@@H](OC(=O)CSC2CCN(C(=O)CCn3cnc4c(N5CCC(N(C)C)C5)nc(N)nc43)CC2)[C@]2(C)[C@H](C)CC[C@]3(CCC(=O)[C@@H]32)[C@@H](C)[C@@H]1O (stereo partly specified) | 0.25 (≈ 0.321 µM) | 0.25 (≈ 0.321 µM) | 0.125 (≈ 0.16 µM) | 3 | 0.063 (≈ 0.0809 µM) | 0.063 (≈ 0.0809 µM) | 0.063 (≈ 0.0809 µM) | 0.125 (≈ 0.16 µM) | 2 (≈ 2.57 µM) |
| C=C[C@]1(C)C[C@@H](OC(=O)CSC2CCN(C(=O)CCn3cnc4c(N5CCC(N)CC5)nc(N)nc43)CC2)[C@]2(C)[C@H](C)CC[C@]3(CCC(=O)[C@@H]32)[C@@H](C)[C@@H]1O | 0.25 (≈ 0.327 µM) | 1 (≈ 1.31 µM) | 0.25 (≈ 0.327 µM) | 1.86 | 0.063 (≈ 0.0823 µM) | 0.125 (≈ 0.163 µM) | 0.063 (≈ 0.0823 µM) | 0.125 (≈ 0.163 µM) | 2 (≈ 2.61 µM) |
| C=C[C@]1(C)C[C@@H](OC(=O)CSC2CCN(C(=O)CCn3cnc4c(N5CCC(N)CC5)ncnc43)CC2)[C@]2(C)[C@H](C)CC[C@]3(CCC(=O)[C@@H]32)[C@@H](C)[C@@H]1O | 0.125 (≈ 0.167 µM) | 0.25 (≈ 0.333 µM) | 0.063 (≈ 0.084 µM) | 1.5 | 0.016 (≈ 0.0213 µM) | 0.032 (≈ 0.0427 µM) | 0.016 (≈ 0.0213 µM) | 0.063 (≈ 0.084 µM) | 4 (≈ 5.33 µM) |
| C=C[C@]1(C)C[C@@H](OC(=O)CSC2CCN(C(=O)CCn3cnc4c(N5CCC(NC)CC5)nc(N)nc43)CC2)[C@]2(C)[C@H](C)CC[C@]3(CCC(=O)[C@@H]32)[C@@H](C)[C@@H]1O | 0.5 (≈ 0.642 µM) | 2 (≈ 2.57 µM) | 0.5 (≈ 0.642 µM) | 1.41 | 0.125 (≈ 0.16 µM) | 0.25 (≈ 0.321 µM) | 0.063 (≈ 0.0809 µM) | 0.25 (≈ 0.321 µM) | 2 (≈ 2.57 µM) |
